Measured values: ChEMBL document CHEMBL1155214, “Structure-affinity relationships of glutamine mimics incorporated into phosphopeptides targeted to the SH2 domain of signal transducer and activator of transcription 3” (J Med Chem, 2009)

Experiments:
[1] = biological target: T1, Signal transducer and activator of transcription 3 (Homo sapiens, UniProt P40763); test: Inhibition of Stat3 SH2 domain by fluorescence polarization assay
[2] = biological target: T1, Signal transducer and activator of transcription 3; test: Ratio of compound IC50 to 4-(3-((S)-1-((S)-2-((S)-5-amino-1-(benzylamino)-1,5-dioxopentan-2-ylcarbamoyl)pyrrolidin-1-yl)-4-methyl-1-oxopentan-2-ylamino)-3-oxoprop-1-enyl)phenyl dihydrogen phosphate IC50 for Stat3 SH2 domain

T1 sequence (P40763 whole entry, the tested form may be a part): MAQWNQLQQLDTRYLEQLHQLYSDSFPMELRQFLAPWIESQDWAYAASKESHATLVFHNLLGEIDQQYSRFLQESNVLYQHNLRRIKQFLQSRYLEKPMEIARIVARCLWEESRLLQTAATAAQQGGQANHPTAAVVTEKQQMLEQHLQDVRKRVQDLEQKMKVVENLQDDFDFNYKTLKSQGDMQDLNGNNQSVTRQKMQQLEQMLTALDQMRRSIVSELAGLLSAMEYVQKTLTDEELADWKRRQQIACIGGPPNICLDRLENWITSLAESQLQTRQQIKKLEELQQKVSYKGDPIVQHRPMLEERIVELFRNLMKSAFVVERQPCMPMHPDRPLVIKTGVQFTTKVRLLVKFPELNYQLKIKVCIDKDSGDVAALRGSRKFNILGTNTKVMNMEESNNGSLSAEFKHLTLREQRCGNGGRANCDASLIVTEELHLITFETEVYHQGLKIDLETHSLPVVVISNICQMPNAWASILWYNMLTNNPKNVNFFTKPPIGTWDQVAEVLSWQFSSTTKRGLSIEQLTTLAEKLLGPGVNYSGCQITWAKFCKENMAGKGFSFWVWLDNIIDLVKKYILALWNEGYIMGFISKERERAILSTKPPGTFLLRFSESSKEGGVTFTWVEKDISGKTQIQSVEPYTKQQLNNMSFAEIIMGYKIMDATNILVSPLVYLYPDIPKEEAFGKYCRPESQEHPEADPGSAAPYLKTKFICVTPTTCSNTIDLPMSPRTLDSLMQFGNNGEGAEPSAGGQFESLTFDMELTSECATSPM

| Ratio IC50 [2] | Compound | IC50 [1] [µM] |
| --- | --- | --- |
| – | CC(C)C[C@H](NC(=O)/C=C/c1ccc(OP(=O)(O)O)cc1)C(=O)N1CCC[C@H]1C(=O)N[C@@H](CCC(N)=O)Cc1ccc(O)cc1 | 0.848 |
| – | CC(C)C[C@H](CCC(N)=O)NC(=O)[C@@H]1[C@@H]2C[C@@H]2CN1C(=O)[C@H](CC(C)C)NC(=O)/C=C/c1ccc(OP(=O)(O)O)cc1 | 1.63 |
| – | CC(C)C[C@H](NC(=O)/C=C/c1ccc(OP(=O)(O)O)cc1)C(=O)N1C[C@H]2C[C@H]2[C@H]1C(=O)NCCOCc1ccccc1 | 0.069 |
| – | CC(C)C[C@H](NC(=O)/C=C/c1ccc(OP(=O)(O)O)cc1)C(=O)N1C[C@H]2C[C@H]2[C@H]1C(=O)N[C@H](C)CCC(N)=O | 0.175 |
| – | CC(C)C[C@H](NC(=O)/C=C/c1ccc(OP(=O)(O)O)cc1)C(=O)N1C[C@H]2C[C@H]2[C@H]1C(=O)N[C@@H](CCC(N)=O)C(=O)NCc1ccccc1 | 0.068 |
| – | CCCC[C@H](CCC(N)=O)NC(=O)[C@@H]1CCCN1C(=O)[C@H](CC(C)C)NC(=O)/C=C/c1ccc(OP(=O)(O)O)cc1 | 1.35 |
| – | CC(C)C[C@H](NC(=O)/C=C/c1ccc(OP(=O)(O)O)cc1)C(=O)N1CCC[C@H]1C(=O)N[C@H](CN)CCC(N)=O | 1.24 |
| – | CC(C)C[C@H](NC(=O)/C=C/c1ccc(OP(=O)(O)O)cc1)C(=O)N1CCC[C@H]1C(=O)N[C@@H](CCC(N)=O)CN(Cc1ccccc1)Cc1ccccc1 | 1.08 |
| – | CC(C)C[C@H](NC(=O)/C=C/c1ccc(OP(=O)(O)O)cc1)C(=O)N1CCC[C@H]1C(=O)NCCOC(N)=O | 0.36 |
| 6 | CC(C)C[C@H](NC(=O)/C=C/c1ccc(OP(=O)(O)O)cc1)C(=O)N1CCC[C@H]1C(=O)N[C@H](C(=O)NCc1ccccc1)[C@@H](C)OC(N)=O | – |
| – | CC(C)C[C@H](NC(=O)/C=C/c1ccc(OP(=O)(O)O)cc1)C(=O)N1CCC[C@H]1C(=O)N[C@H](COCc1ccccc1)COC(N)=O | 0.454 |
| – | CC(C)C[C@H](NC(=O)/C=C/c1ccc(OP(=O)(O)O)cc1)C(=O)N1C[C@H]2C[C@H]2[C@H]1C(=O)N[C@@H](CCC(N)=O)COCc1ccccc1 | 0.094 |
| – | CC(C)C[C@H](NC(=O)/C=C/c1ccc(OP(=O)(O)O)cc1)C(=O)N1CCC[C@H]1C(=O)N[C@H](C)COC(N)=O | 0.797 |
| – | CC(C)C[C@H](CCC(N)=O)NC(=O)[C@@H]1CCCN1C(=O)[C@H](CC(C)C)NC(=O)/C=C/c1ccc(OP(=O)(O)O)cc1 | 4.9 |
| – | CC(=O)NC[C@H](CCC(N)=O)NC(=O)[C@@H]1CCCN1C(=O)[C@H](CC(C)C)NC(=O)/C=C/c1ccc(OP(=O)(O)O)cc1 | 0.589 |
| – | CC(C)C[C@H](NC(=O)/C=C/c1ccc(OP(=O)(O)O)cc1)C(=O)N1CCC[C@H]1C(=O)N[C@@H](CCC(N)=O)CN1CCCCC1 | 1.21 |
| – | CC(C)C[C@H](NC(=O)/C=C/c1ccc(OP(=O)(O)O)cc1)C(=O)N1C[C@H]2C[C@H]2[C@H]1C(=O)N[C@@H](CCC(N)=O)C(C)C | 0.511 |
| – | CC(C)C[C@H](NC(=O)/C=C/c1ccc(OP(=O)(O)O)cc1)C(=O)N1C[C@H]2C[C@H]2[C@H]1C(=O)N[C@@H](CCC(N)=O)[C@@H](C)O | 0.437 |
| 3 | CC(C)C[C@H](NC(=O)/C=C/c1ccc(OP(=O)(O)O)cc1)C(=O)N1CCC[C@H]1C(=O)N[C@@H](COC(N)=O)C(=O)NCc1ccccc1 | – |
| – | CC(C)C[C@H](NC(=O)/C=C/c1ccc(OP(=O)(O)O)cc1)C(=O)N1C[C@H]2C[C@H]2[C@H]1C(=O)N[C@@H](CCC(N)=O)[C@@H](C)OCc1ccccc1 (mixture of isomers) | 0.069 |
| – | CC(C)C[C@H](NC(=O)/C=C/c1ccc(OP(=O)(O)O)cc1)C(=O)N1CCC[C@H]1C(=O)NCCNC(N)=O | 0.131 |
| – | CC(C)C[C@H](NC(=O)/C=C/c1ccc(OP(=O)(O)O)cc1)C(=O)N1CCC[C@H]1C(=O)N[C@H](C)CNC(N)=O | 1.35 |
| – | CC(C)C[C@H](NC(=O)/C=C/c1ccc(OP(=O)(O)O)cc1)C(=O)N1C[C@H]2C[C@H]2[C@H]1C(=O)NCCCC(N)=O | 0.303 |
| – | CC(C)C[C@H](NC(=O)/C=C/c1ccc(OP(=O)(O)O)cc1)C(=O)N1CCC[C@H]1C(=O)N[C@@H](CCC(N)=O)COC(N)=O | 0.615 |
| – | CC(C)C[C@H](NC(=O)/C=C/c1ccc(OP(=O)(O)O)cc1)C(=O)N1CCC[C@H]1C(=O)N[C@@H](CCC(N)=O)CN1CCOCC1 | 1.53 |
| – | CC(C)C[C@H](NC(=O)/C=C/c1ccc(OP(=O)(O)O)cc1)C(=O)N1CCC[C@H]1C(=O)N[C@@H](CCC(N)=O)CN1CCN(C)CC1 | 1.31 |
| – | CC(C)C[C@H](NC(=O)/C=C/c1ccc(OP(=O)(O)O)cc1)C(=O)N1CCC[C@H]1C(=O)N[C@@H](CCC(N)=O)C(C)C | 1.88 |
